From patent US20250026766A1, “Thiazolopyridyl Amide Derivatives as DNA Polymerase Theta Inhibitors” (BeiGene, Ltd., priority 2022, published 2025)
pIC50: −log10 of the molar value.

Target: Pol Theta (1-894) (Homo sapiens (Human), UniProt O75417)
Test: Biochemical Pol Theta (1-894) ATPase IC50 assay (ADP-Glo, ssDNA substrate)
Conditions: ADP-Glo assay with ssDNA substrate, room temperature
Method in brief: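 His-tagged human Pol Theta 1-894 from Sf9 baculovirus cells, 2× enzyme solution at 12.5 nM, assayed with ssDNA substrate at room temperature in 40 mM Tris pH 7.5, 20 mM MgCl2, 1 mM DTT, 0.01% BSA, 0.05% Tween-20.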

Sequence of Pol Theta (1-894) (O75417 1-894): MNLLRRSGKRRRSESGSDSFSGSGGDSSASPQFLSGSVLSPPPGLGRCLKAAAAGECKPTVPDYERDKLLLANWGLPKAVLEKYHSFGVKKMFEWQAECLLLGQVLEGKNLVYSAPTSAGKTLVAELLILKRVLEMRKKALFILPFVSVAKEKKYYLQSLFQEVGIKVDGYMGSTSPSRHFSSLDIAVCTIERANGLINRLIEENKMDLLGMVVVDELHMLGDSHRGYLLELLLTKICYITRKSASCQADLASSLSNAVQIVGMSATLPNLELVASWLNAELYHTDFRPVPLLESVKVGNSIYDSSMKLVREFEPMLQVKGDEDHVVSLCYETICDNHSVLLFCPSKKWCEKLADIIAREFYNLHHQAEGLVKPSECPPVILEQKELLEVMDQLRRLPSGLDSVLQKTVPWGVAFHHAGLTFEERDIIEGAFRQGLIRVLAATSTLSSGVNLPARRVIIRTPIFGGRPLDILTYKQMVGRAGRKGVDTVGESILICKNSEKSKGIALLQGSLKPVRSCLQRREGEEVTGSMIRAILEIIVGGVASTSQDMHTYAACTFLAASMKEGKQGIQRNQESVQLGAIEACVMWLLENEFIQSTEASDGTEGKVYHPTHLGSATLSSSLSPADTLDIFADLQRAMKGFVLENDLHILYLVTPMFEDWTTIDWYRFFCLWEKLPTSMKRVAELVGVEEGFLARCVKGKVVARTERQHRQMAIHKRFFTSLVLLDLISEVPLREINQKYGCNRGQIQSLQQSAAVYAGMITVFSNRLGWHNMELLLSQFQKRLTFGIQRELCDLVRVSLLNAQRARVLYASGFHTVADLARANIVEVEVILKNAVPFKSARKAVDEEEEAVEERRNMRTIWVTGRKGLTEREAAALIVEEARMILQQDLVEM

| SMILES | pIC50 |
| --- | --- |
| Cc1cc(-c2ccc(=O)n(C)c2)c(C(=O)Nc2nc3ccc(-c4ccc(C#N)cc4)nc3s2)cn1 [Example 54, N-(5-(4-cyanophenyl)thiazolo[5,4-b]pyridin-2-yl)-1,6′-dimethyl-6-oxo-1,6-dihydro-[3,4′-bipyridine]-3′-carboxamide] | 7.19 |
| COc1ccc(C#N)cc1-c1cc(C)ncc1C(=O)Nc1nc2ccc(-c3ccc(C(F)(F)F)cc3)nc2s1 [Example 40, 4-(5-cyano-2-methoxyphenyl)-6-methyl-N-(5-(4-(trifluoromethyl)phenyl)thiazolo[5,4-b]pyridin-2-yl)nicotinamide] | 7.06 |
| COc1ccc(C#N)cc1-c1cc(C)ncc1C(=O)Nc1nc2ccc(-c3ccc(Cl)cc3)nc2s1 [Example 8, N-(5-(4-chlorophenyl)thiazolo[5,4-b]pyridin-2-yl)-4-(5-cyano-2-methoxyphenyl)-6-methylnicotinamide] | 7.92 |
| CCNC(=O)c1ccc(-c2ccc3nc(NC(=O)c4cnc(C)cc4-c4cc(C#N)ccc4OC)sc3n2)cc1 [Example 73, 4-(5-cyano-2-methoxyphenyl)-N-(5-(4-(ethylcarbamoyl)phenyl)thiazolo[5,4-b]pyridin-2-yl)-6-methylnicotinamide] | 7.82 |
| COc1ccc(C#N)cc1-c1cc(C)ncc1C(=O)Nc1nc2ccc(-c3ccc(NS(C)(=O)=O)c(F)c3)nc2s1 [Example 90, 4-(5-cyano-2-methoxyphenyl)-N-(5-(3-fluoro-4-(methylsulfonamido)phenyl)thiazolo[5,4-b]pyridin-2-yl)-6-methylnicotinamide] | 8.39 |
| COc1ccccc1-c1cnccc1C(=O)Nc1nc2ccc(-c3ccc(Cl)cc3)nc2s1 [Example 3, N-(5-(4-chlorophenyl)thiazolo[5,4-b]pyridin-2-yl)-3-(2-methoxyphenyl)isonicotinamide] | 6.84 |
| COc1ccc(C#N)cc1-c1cc(C)ncc1C(=O)Nc1nc2ccc(-c3ccc(CC#N)cn3)nc2s1 [Example 168, 4-(5-cyano-2-methoxyphenyl)-N-(5-(5-(cyanomethyl)pyridin-2-yl)thiazolo[5,4-b]pyridin-2-yl)-6-methylnicotinamide] | 8.36 |
| COc1ccc(C#N)cc1-c1cc(C)ncc1C(=O)Nc1nc2ccc(-c3ccc(C4(C#N)CC4)cc3)nc2s1 [Example 29, 4-(5-cyano-2-methoxyphenyl)-N-(5-(4-(1-cyanocyclopropyl)phenyl)thiazolo[5,4-b]pyridin-2-yl)-6-methylnicotinamide] | 7.24 |
| COc1ccccc1-c1cnncc1C(=O)Nc1nc2ccc(-c3ccc(Cl)cc3C(F)(F)F)nc2s1 [Example 99, N-(5-(4-chloro-2-(trifluoromethyl)phenyl)thiazolo[5,4-b]pyridin-2-yl)-5-(2-methoxyphenyl)pyridazine-4-carboxamide] | 7.18 |
| COc1ccc(C#N)cc1-c1cc(C)ncc1C(=O)Nc1nc2ccc(CCc3ccc(Cl)cc3)nc2s1 [Example 107, N-(5-(4-chlorophenethyl)thiazolo[5,4-b]pyridin-2-yl)-4-(5-cyano-2-methoxyphenyl)-6-methylnicotinamide] | 7.77 |
| CCOc1ccc(C#N)cc1-c1cc(C)ncc1C(=O)Nc1nc2ccc(-c3ccc(C#N)cc3)nc2s1 [Example 105, 4-(5-cyano-2-ethoxyphenyl)-N-(5-(4-cyanophenyl)thiazolo[5,4-b]pyridin-2-yl)-6-methylnicotinamide] | 7.80 |
| COc1ccccc1-c1cnncc1C(=O)Nc1nc2ccc(-c3ccc(NC(C)=O)c(C)c3)nc2s1 [Example 165, N-(5-(4-acetamido-3-methylphenyl)thiazolo[5,4-b]pyridin-2-yl)-5-(2-methoxyphenyl)pyridazine-4-carboxamide] | 8.05 |
| COc1ccccc1-c1cnncc1C(=O)Nc1nc2ccc(-c3ccc(C#N)cc3F)nc2s1 [Example 128, N-(5-(4-cyano-2-fluorophenyl)thiazolo[5,4-b]pyridin-2-yl)-5-(2-methoxyphenyl)pyridazine-4-carboxamide] | 8.09 |
| COc1ccc(C#N)cc1-c1cc(C)ncc1C(=O)Nc1nc2ccc(C3CCOCC3)nc2s1 [Example 67, 4-(5-cyano-2-methoxyphenyl)-6-methyl-N-(5-(tetrahydro-2H-pyran-4-yl)thiazolo[5,4-b]pyridin-2-yl)nicotinamide] | 7.19 |
| COc1ccc(C#N)cc1-c1cc(C)ncc1C(=O)Nc1nc2ccc(-c3ccc([C@@H](C)C#N)cc3)nc2s1 [Example 177A, (R)-4-(5-cyano-2-methoxyphenyl)-N-(5-(4-(1-cyanoethyl)phenyl)thiazolo[5,4-b]pyridin-2-yl)-6-methylnicotinamide] | 7.60 |
| COc1ccc(C#N)cc1-c1cc(C)ncc1C(=O)Nc1nc2ccc(-c3ccc(C#N)cc3)nc2s1 [Example 19, 4-(5-cyano-2-methoxyphenyl)-N-(5-(4-cyanophenyl)thiazolo[5,4-b]pyridin-2-yl)-6-methylnicotinamide] | 8.07 |
| COc1ccccc1-c1cnncc1C(=O)Nc1nc2ccc(-c3cc(C)c(NC(C)=O)c(C)c3)nc2s1 [Example 140, N-(5-(4-acetamido-3,5-dimethylphenyl)thiazolo[5,4-b]pyridin-2-yl)-5-(2-methoxyphenyl)pyridazine-4-carboxamide] | 8.11 |
| COc1ccc(C#N)cc1-c1cc(C)ncc1C(=O)Nc1nc2ccc(-c3ccc(C(=O)N4CCC4)c(C)c3)nc2s1 [Example 151, N-(5-(4-(azetidine-1-carbonyl)-3-methylphenyl)thiazolo[5,4-b]pyridin-2-yl)-4-(5-cyano-2-methoxyphenyl)-6-methylnicotinamide] | 7.14 |
| COc1ccc(C#N)cc1-c1cc(C)ncc1C(=O)Nc1nc2ccc(-c3ccc(N(C)S(C)(=O)=O)cc3)nc2s1 [Example 32, 4-(5-cyano-2-methoxyphenyl)-6-methyl-N-(5-(4-(N-methylmethylsulfonamido)phenyl)thiazolo[5,4-b]pyridin-2-yl)nicotinamide] | 7.59 |
| COc1ccccc1-c1cnncc1C(=O)Nc1nc2ccc(-c3ccc(NS(C)(=O)=O)cc3)nc2s1 [Example 48, 5-(2-methoxyphenyl)-N-(5-(4-(methylsulfonamido)phenyl)thiazolo[5,4-b]pyridin-2-yl)pyridazine-4-carboxamide] | 8.02 |
| COc1ccc(C#N)cc1-c1cc(C)ncc1C(=O)Nc1nc2ccc(-c3ccc(CC#N)c(C)c3)nc2s1 [Example 171, 4-(5-cyano-2-methoxyphenyl)-N-(5-(4-(cyanomethyl)-3-methylphenyl)thiazolo[5,4-b]pyridin-2-yl)-6-methylnicotinamide] | 7.89 |
| COc1ccccc1-c1cnncc1C(=O)Nc1nc2ccc(-c3ccc(C(=O)NC(C)C)cc3)nc2s1 [Example 102, N-(5-(4-(isopropylcarbamoyl)phenyl)thiazolo[5,4-b]pyridin-2-yl)-5-(2-methoxyphenyl)pyridazine-4-carboxamide] | 7.20 |
| COc1ccc(F)cc1-c1cc(C)ncc1C(=O)Nc1nc2ccc(-c3ccc(NC(C)=O)cc3)nc2s1 [Example 25, N-(5-(4-acetamidophenyl)thiazolo[5,4-b]pyridin-2-yl)-4-(5-fluoro-2-methoxyphenyl)-6-methylnicotinamide] | 7.27 |
| COc1ccc(C(N)=O)cc1-c1cc(C)ncc1C(=O)Nc1nc2ccc(-c3ccc(NC(C)=O)cc3)nc2s1 [Example 26, N-(5-(4-acetamidophenyl)thiazolo[5,4-b]pyridin-2-yl)-4-(5-carbamoyl-2-methoxyphenyl)-6-methylnicotinamide] | 6.72 |
| COc1ccccc1-c1cnncc1C(=O)Nc1nc2ccc(-c3ccc(Cl)cn3)nc2s1 [Example 55, N-(5-(5-chloropyridin-2-yl)thiazolo[5,4-b]pyridin-2-yl)-5-(2-methoxyphenyl)pyridazine-4-carboxamide] | 8.30 |
